In patent publication US10858335B2 (Rigel Pharmaceuticals, Inc., priority 2014, dated 2020):

tested on: GDF8 signaling (p-SMAD-3 (Ser423/425)); assay: AlphaScreen SureFire SMAD3 (p-Ser423/425) assay, GDF8-stimulated cells (GDF pSMAD); type: cell-based; details: Mus musculus, MPC-11, MPC11; GDF8-stimulated; p-SMAD3 AlphaScreen; read-out: GDF pSMAD (MPC11) (inhibition of GDF8 signaling)

IC50	SMILES
0.679 µM	Cc1cc(-c2ncc(NCc3ccc(Cl)nc3)cc2-c2ccc3ncsc3c2)ccc1F [compound 321, 5-(Benzo[d]thiazol-6-yl)-N-((6-chloropyridin-3-yl)methyl)-6-(4-fluoro-3-methylphenyl)pyridin-3-amine]
0.253 µM	Cc1cc(-c2ncc(NCc3cnc[nH]3)cc2-c2ccc3ncsc3c2)ccc1F [compound 322, N-((1H-Imidazol-5-yl)methyl)-5-(benzo[d]thiazol-6-yl)-6-(4-fluoro-3-methylphenyl)pyridin-3-amine]
0.327 µM	CCc1ncc(CNc2cnc(-c3ccc(F)c(C)c3)c(-c3ccc4ncsc4c3)c2)[nH]1 [compound 323, 5-(Benzo[d]thiazol-6-yl)-N-((2-ethyl-1H-imidazol-5-yl)methyl)-6-(4-fluoro-3-methylphenyl)pyridin-3-amine]
0.461 µM	COc1ccc(CNc2cnc(-c3ccc(F)c(C)c3)c(-c3ccc4ncsc4c3)c2)cn1 [compound 324, 5-(Benzo[d]thiazol-6-yl)-6-(4-fluoro-3-methylphenyl)-N-((6-methoxypyridin-3-yl)methyl)pyridin-3-amine]
0.198 µM	Cc1cc(-c2ncc(NCc3nccs3)cc2-c2ccc3ncsc3c2)ccc1F [compound 326, 5-(Benzo[d]thiazol-6-yl)-6-(4-fluoro-3-methylphenyl)-N-(thiazol-2-ylmethyl)pyridin-3-amine]
0.323 µM	Cc1cc(-c2ncc(NCc3cncs3)cc2-c2ccc3ncsc3c2)ccc1F [compound 327, 5-(Benzo[d]thiazol-6-yl)-6-(4-fluoro-3-methylphenyl)-N-(thiazol-5-ylmethyl)pyridin-3-amine]
2.5 µM	Cc1cc(-c2ncc(NCc3ccc(-c4cccnc4)nc3)cc2-c2ccc3ncsc3c2)ccc1F [compound 328, N-([2,3′-Bipyridin]-5-ylmethyl)-5-(benzo[d]thiazol-6-yl)-6-(4-fluoro-3-methylphenyl)pyridin-3-amine]
0.803 µM	Cc1cc(-c2ncc(NCc3cnc4[nH]ccc4c3)cc2-c2ccc3ncsc3c2)ccc1F [compound 329, N-((1H-Pyrrolo[2,3-b]pyridin-5-yl)methyl)-5-(benzo[d]thiazol-6-yl)-6-(4-fluoro-3-methylphenyl)pyridin-3-amine]
0.457 µM	Cc1cc(-c2ncc(NCc3c[nH]c4ncccc34)cc2-c2ccc3ncsc3c2)ccc1F [compound 330, N-((1H-Pyrrolo[2,3-b]pyridin-3-yl)methyl)-5-(benzo[d]thiazol-6-yl)-6-(4-fluoro-3-methylphenyl)pyridin-3-amine]
1.33 µM	Cc1cc(-c2ncc(NCc3cccnc3C)cc2-c2ccc3ncsc3c2)ccc1F [compound 331, 5-(Benzo[d]thiazol-6-yl)-6-(4-fluoro-3-methylphenyl)-N-((2-methylpyridin-3-yl)methyl)pyridin-3-amine]
0.311 µM	Cc1cc(-c2ncc(NCc3cccc(O)c3)cc2-c2ccc3ncsc3c2)ccc1F [compound 332, 3-(((5-(Benzo[d]thiazol-6-yl)-6-(4-fluoro-3-methylphenyl)pyridin-3-yl)amino)methyl)phenol]
0.376 µM	Cc1cc(-c2ncc(NCc3ccc(O)cc3)cc2-c2ccc3ncsc3c2)ccc1F [compound 333, 4-(((5-(Benzo[d]thiazol-6-yl)-6-(4-fluoro-3-methylphenyl)pyridin-3-yl)amino)methyl)phenol]
0.373 µM	Cc1ccc(CNc2cnc(-c3ccc(F)c(C)c3)c(-c3ccc4ncsc4c3)c2)cn1 [compound 334, 5-(Benzo[d]thiazol-6-yl)-6-(4-fluoro-3-methylphenyl)-N-((6-methylpyridin-3-yl)methyl)pyridin-3-amine]
0.306 µM	Cc1cc(-c2ncc(NCc3cnc4c(c3)ncn4C)cc2-c2ccc3ncsc3c2)ccc1F [compound 335, 5-(Benzo[d]thiazol-6-yl)-6-(4-fluoro-3-methylphenyl)-N-((3-methyl-3H-imidazo[4,5-b]pyridin-6-yl)methyl)pyridin-3-amine]
0.764 µM	Cc1cc(-c2ncc(NCc3cccc4cccnc34)cc2-c2ccc3ncsc3c2)ccc1F [compound 336, 5-(Benzo[d]thiazol-6-yl)-6-(4-fluoro-3-methylphenyl)-N-(quinolin-8-ylmethyl)pyridin-3-amine]
0.479 µM	Cc1cc(-c2ncc(NCc3cccc4cnccc34)cc2-c2ccc3ncsc3c2)ccc1F [compound 337, 5-(Benzo[d]thiazol-6-yl)-6-(4-fluoro-3-methylphenyl)-N-(isoquinolin-5-ylmethyl)pyridin-3-amine]
0.164 µM	CC(=O)Nc1ccc(CNc2cnc(-c3ccc(F)c(C)c3)c(-c3ccc4ncsc4c3)c2)cc1 [compound 338, N-(4-(((5-(Benzo[d]thiazol-6-yl)-6-(4-fluoro-3-methylphenyl)pyridin-3-yl)amino)methyl)phenyl)acetamide]
0.59 µM	Cc1cc(-c2ncc(NCc3cnc4ccccc4c3)cc2-c2ccc3ncsc3c2)ccc1F [compound 339, 5-(Benzo[d]thiazol-6-yl)-6-(4-fluoro-3-methylphenyl)-N-(quinolin-3-ylmethyl)pyridin-3-amine]
0.464 µM	Cc1cc(-c2ncccc2-c2ccc3ncn(C)c(=O)c3c2)ccc1F [compound 340, 6-(2-(4-Fluoro-3-methylphenyl)pyridin-3-yl)-3-methylquinazolin-4(3H)-one]
0.26 µM	Cc1cccc(-c2ncccc2-c2ccc3ncn(C)c(=O)c3c2)c1 [compound 341, 3-Methyl-6-(2-(m-tolyl)pyridin-3-yl)quinazolin-4(3H)-one]

IC50	SMILES
0.106 µM	Cn1cnc2ccc(-c3cccnc3-c3cccc(C4CC4)c3)cc2c1=O [compound 342, 6-(2-(3-Cyclopropylphenyl)pyridin-3-yl)-3-methylquinazolin-4(3H)-one]
2.64 µM	Cc1cc(-c2ncc(-c3cccc(O)c3)cc2-c2ccc3ncsc3c2)ccc1F [compound 343, 3-(5-(Benzo[d]thiazol-6-yl)-6-(4-fluoro-3-methylphenyl)pyridin-3-yl)phenol]
4.83 µM	Cc1cc(-c2ncc(-c3cn[nH]c3)cc2-c2ccc3ncsc3c2)ccc1F [compound 345, 6-(2-(4-Fluoro-3-methylphenyl)-5-(1H-pyrazol-4-yl)pyridin-3-yl)benzo[d]thiazole]
0.193 µM	Cc1cc(-c2ncccc2-c2ccc3[nH]cnc(=O)c3c2)ccc1F [compound 346, 6-(2-(4-Fluoro-3-methylphenyl)pyridin-3-yl)quinazolin-4(1H)-one]
1.49 µM	Cc1cc(-c2ncc(-c3cccc(S(N)(=O)=O)c3)cc2-c2ccc3ncsc3c2)ccc1F [compound 347, 3-(5-(Benzo[d]thiazol-6-yl)-6-(4-fluoro-3-methylphenyl)pyridin-3-yl)benzenesulfonamide]
1.3 µM	Cc1cc(-c2ncccc2-c2ccc3c(=O)nc[nH]c3c2)ccc1F [compound 348, 7-(2-(4-Fluoro-3-methylphenyl)pyridin-3-yl)quinazolin-4(1H)-one]
1.01 µM	Cc1cccc(-c2ncccc2-c2ccc3c(=O)nc[nH]c3c2)c1 [compound 349, 7-(2-(m-Tolyl)pyridin-3-yl)quinazolin-4(1H)-one]
0.347 µM	O=c1nc[nH]c2cc(-c3cccnc3-c3cccc(C4CC4)c3)ccc12 [compound 350, 7-(2-(3-cyclopropylphenyl)pyridin-3-yl)quinazolin-4(1H)-one]
0.215 µM	COc1cc(CNc2cnc(-c3ccc(F)c(C)c3)c(-c3ccc4ncsc4c3)c2)ccc1O [compound 351, 4-(((5-(Benzo[d]thiazol-6-yl)-6-(4-fluoro-3-methylphenyl)pyridin-3-yl)amino)methyl)-2-methoxyphenol]
0.307 µM	COc1ccc(CNc2cnc(-c3ccc(F)c(C)c3)c(-c3ccc4ncsc4c3)c2)cc1OCC(N)=O [compound 352, 2-(5-(((5-(Benzo[d]thiazol-6-yl)-6-(4-fluoro-3-methylphenyl)pyridin-3-yl)amino)methyl)-2-methoxyphenoxy)acetamide]
0.689 µM	Cc1cc(-c2ncc(NCc3ccc(N4CCOCC4)cc3)cc2-c2ccc3ncsc3c2)ccc1F [compound 353, 5-(Benzo[d]thiazol-6-yl)-6-(4-fluoro-3-methylphenyl)-N-(4-morpholinobenzyl)pyridin-3-amine]
1.27 µM	Cc1cc(-c2ncc(NCc3cccc(N4CCOCC4)c3)cc2-c2ccc3ncsc3c2)ccc1F [compound 354, 5-(Benzo[d]thiazol-6-yl)-6-(4-fluoro-3-methylphenyl)-N-(3-morpholinobenzyl)pyridin-3-amine]
0.965 µM	COc1cc(CNc2cnc(-c3ccc(F)c(C)c3)c(-c3ccc4ncsc4c3)c2)ccc1OCCO [compound 356, 2-(4-(((5-(Benzo[d]thiazol-6-yl)-6-(4-fluoro-3-methylphenyl)pyridin-3-yl)amino)methyl)-2-methoxyphenoxy)ethan-1-ol]
0.863 µM	Cc1cc(-c2ncc(NCc3ccc(CN4CCOCC4)cc3)cc2-c2ccc3ncsc3c2)ccc1F [compound 358, 5-(Benzo[d]thiazol-6-yl)-6-(4-fluoro-3-methylphenyl)-N-(4-(morpholinomethyl)benzyl)pyridin-3-amine]
0.524 µM	Cc1cc(-c2ncc(NCc3ccc(S(N)(=O)=O)cc3)cc2-c2ccc3ncsc3c2)ccc1F [compound 359, 4-(((5-(Benzo[d]thiazol-6-yl)-6-(4-fluoro-3-methylphenyl)pyridin-3-yl)amino)methyl)benzenesulfonamide]
0.23 µM	Cc1cccc(-c2ncccc2-c2ccc3[nH]cnc(=O)c3c2)c1 [compound 361, 6-(2-(m-tolyl)pyridin-3-yl)quinazolin-4(1H)-one]
0.105 µM	O=c1nc[nH]c2ccc(-c3cccnc3-c3cccc(C4CC4)c3)cc12 [compound 362, 6-(2-(3-Cyclopropylphenyl)pyridin-3-yl)quinazolin-4(1H)-one]
0.903 µM	Cc1cc(-c2ncccc2-c2ccc3ncncc3c2)ccc1F [compound 363, 6-(2-(4-Fluoro-3-methylphenyl)pyridin-3-yl)quinazoline]
0.338 µM	Cc1cccc(-c2ncccc2-c2ccc3ncncc3c2)c1 [compound 364, 6-(2-(m-Tolyl)pyridin-3-yl)quinazoline]
0.165 µM	c1cc(-c2ncccc2-c2ccc3ncncc3c2)cc(C2CC2)c1 [compound 365, 6-(2-(3-Cyclopropylphenyl)pyridin-3-yl)quinazoline]
